From patent publication US7192906B2, “Substituted pyrazole derivatives, production process thereof, and herbicide compositions containing the derivatives” (SDS Biotech K.K., priority 2001, dated 2007)

What was measured:
Format in all cases: in vivo
Ammannia multiflora = assay: Test Example 3 paddy field treatment; conditions: Table 6, paddy field treatment, active ingredient 1 kg per hectare, 21st day after dropping, index 0-5
Protocol: (§1) A plastic pot of 130 cm^2 was filled with paddy soil, and soil puddling was carried out to adjust the submerged depth to 4 cm. Subsequently, seeds of Echinochloa crusgalli, Monochoria vaginalis, Ammannia multiflora and Scirpus juncoides were sowed, and rice (Oryza sative, variety: Koshihikari) of two-leaf period was transplanted by 2 rice plants of 1 stub per pot at a depth of 3 cm. On the 10th day after the transplantation, the wettable powder prepared in Formulation Example 1 was diluted with water such that the amount of the active ingredient became 1 kg per hectare, and then dropped to diffuse on the water surface. On the 21st day after the dropping, observation and evaluation were carried out according to the aforesaid criteria.
(§2) Herbicidal activity was evaluated based on the following criteria.
(§3) • 5: herbicidal effect of not less than 90%, or phytotoxicity of 90% or more • 4: herbicidal effect of not less than 70% and less than 90%, or phytotoxicity of 70% or more and less than 90% • 3: herbicidal effect of not less than 50% and less than 70%, or phytotoxicity of 50% or more and less than 70% • 2: herbicidal effect of not less than 30% and less than 50%, or phytotoxicity of 30% or more and less than 50% • 1: herbicidal effect of not less than 10% and less than 30%, or phytotoxicity of 10% or more and less than 30% • 0: herbicidal effect of not less than 0% and less than 10%, or phytotoxicity of 0% or more and less than 10%

Echinochloa crusgalli = assay: Test Example 3 paddy field treatment; conditions: Table 6, paddy field treatment, active ingredient 1 kg per hectare, 21st day after dropping, index 0-5
Protocol: as §1, §2, §3

Monochoria vaginalis = assay: Test Example 3 paddy field treatment; conditions: Table 6, paddy field treatment, active ingredient 1 kg per hectare, 21st day after dropping, index 0-5
Protocol: as §1, §2, §3

Scirpus juncoides = assay: Test Example 3 paddy field treatment; conditions: Table 6, paddy field treatment, active ingredient 1 kg per hectare, 21st day after dropping, index 0-5
Protocol: as §1, §2, §3

Stellaria media [1] = assay: Test Example 2 upland soil treatment; conditions: Table 5, upland soil treatment, index 0-5
In short: (§4)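 Visual 0–5 grading of herbicidal effect or phytotoxicity, made 21 days after a single pre-emergence soil-surface application at 1 kg a.i./ha.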

Chenopodium album [2] = assay: Test Example 2 upland soil treatment; conditions: Table 5, upland soil treatment, index 0-5
In short: as §4

Digitaria adscendens [3] = assay: Test Example 2 upland soil treatment; conditions: Table 5, upland soil treatment, index 0-5
In short: as §4

Setaria viridis [4] = assay: Test Example 2 upland soil treatment; conditions: Table 5, upland soil treatment, index 0-5
In short: as §4

Rice (Oryza sativa) = assay: Test Example 3 paddy field treatment, crop phytotoxicity; conditions: Table 6, paddy field treatment, transplanted rice, active ingredient 1 kg per hectare, 21st day after dropping, index 0-5
Protocol: as §1, §2, §3

soybean (Glycine max) [5] = assay: Test Example 2 upland soil treatment, crop phytotoxicity; conditions: Table 5, upland soil treatment, index 0-5
In short: as §4

[6] = tested on: wheat (Triticum aestivum); assay: as above; conditions: Table 5, upland soil treatment, index 0-5
In short: as §4

soybean (Glycine max) [7] = assay: Test Example 1 upland field foliage treatment, crop phytotoxicity; conditions: Table 4, upland field foliage treatment, index 0-5
In short: (§5)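 Scores are visual 0–5 ratings of herbicidal effect or crop injury (0: under 10%; 5: 90% or more) taken 21 days after treatment. Plants grew from seed in upland soil for 14 days, then foliage received the compound as a water-diluted wettable powder at 1 kg/ha active ingredient.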

[8] = tested on: wheat (Triticum aestivum); assay: as above; conditions: Table 4, upland field foliage treatment, index 0-5
In short: as §5

Stellaria media [9] = assay: Test Example 1 upland field foliage treatment; conditions: Table 4, upland field foliage treatment, index 0-5
In short: as §5

Chenopodium album [10] = assay: Test Example 1 upland field foliage treatment; conditions: Table 4, upland field foliage treatment, index 0-5
In short: as §5

Digitaria adscendens [11] = assay: Test Example 1 upland field foliage treatment; conditions: Table 4, upland field foliage treatment, index 0-5
In short: as §5

Setaria viridis [12] = assay: Test Example 1 upland field foliage treatment; conditions: Table 4, upland field foliage treatment, index 0-5
In short: as §5

Structure (SMILES)	Herbicidal activity AM (Ammannia multiflora)	Herbicidal activity EC (Echinochloa crusgalli)	Herbicidal activity MV (Monochoria vaginalis)	Herbicidal activity SJ (Scirpus juncoides)	Herbicidal activity SM: Stellaria media (Stellaria media [1])	Herbicidal activity CA: Chenopodium album (Chenopodium album [2])	Herbicidal activity DA: Digitaria adscendens (Digitaria adscendens [3])	Herbicidal activity SV: Setaria viridis (Setaria viridis [4])	Herbicidal activity (phytotoxicity) OS (Rice (Oryza sativa))	Herbicidal activity (phytotoxicity) GM: Soybean (Glycine max) (soybean (Glycine max) [5])	Herbicidal activity (phytotoxicity) TA: Wheat (Triticum aestivum) [6]	Herbicidal activity (phytotoxicity) GM: Soybean (Glycine max) (soybean (Glycine max) [7])	Herbicidal activity (phytotoxicity) TA: Wheat (Triticum aestivum) [8]	Herbicidal activity SM: Stellaria media (Stellaria media [9])	Herbicidal activity CA: Chenopodium album (Chenopodium album [10])	Herbicidal activity DA: Digitaria adscendens (Digitaria adscendens [11])	Herbicidal activity SV: Setaria viridis (Setaria viridis [12])
CNC(=O)C(Cn1cc(C)c(-c2cccc(F)c2F)n1)=NOC [Compound 55]	5 (herbicidal effect of not less than 90%, or phytotoxicity of 90% or more)	5 (herbicidal effect of not less than 90%, or phytotoxicity of 90% or more)	5 (herbicidal effect of not less than 90%, or phytotoxicity of 90% or more)	5 (herbicidal effect of not less than 90%, or phytotoxicity of 90% or more)	5 (herbicidal effect of not less than 90%, or phytotoxicity of 90% or more)	5 (herbicidal effect of not less than 90%, or phytotoxicity of 90% or more)	5 (herbicidal effect of not less than 90%, or phytotoxicity of 90% or more)	5 (herbicidal effect of not less than 90%, or phytotoxicity of 90% or more)	0 (herbicidal effect of not less than 0% and less than 10%, or phytotoxicity of 0% or more and less than 10%)	0 (herbicidal effect of not less than 0% and less than 10%, or phytotoxicity of 0% or more and less than 10%)	0 (herbicidal effect of not less than 0% and less than 10%, or phytotoxicity of 0% or more and less than 10%)						
CNC(=O)C(Cn1cc(C)c(-c2cc(F)cc(C(F)(F)F)c2)n1)=NOC [Compound 88]					5 (herbicidal effect of not less than 90%, or phytotoxicity of 90% or more)	5 (herbicidal effect of not less than 90%, or phytotoxicity of 90% or more)	4 (herbicidal effect of not less than 70% and less than 90%, or phytotoxicity of 70% or more and less than 90%)	4 (herbicidal effect of not less than 70% and less than 90%, or phytotoxicity of 70% or more and less than 90%)		0 (herbicidal effect of not less than 0% and less than 10%, or phytotoxicity of 0% or more and less than 10%)	0 (herbicidal effect of not less than 0% and less than 10%, or phytotoxicity of 0% or more and less than 10%)	0 (herbicidal effect of not less than 0% and less than 10%, or phytotoxicity of 0% or more and less than 10%)	0 (herbicidal effect of not less than 0% and less than 10%, or phytotoxicity of 0% or more and less than 10%)	5 (herbicidal effect of not less than 90%, or phytotoxicity of 90% or more)	5 (herbicidal effect of not less than 90%, or phytotoxicity of 90% or more)	5 (herbicidal effect of not less than 90%, or phytotoxicity of 90% or more)	4 (herbicidal effect of not less than 70% and less than 90%, or phytotoxicity of 70% or more and less than 90%)
CCN(CC)C(=O)C(Cn1cc(C)c(-c2ccccc2)n1)=NOC [Compound 94]					4 (herbicidal effect of not less than 70% and less than 90%, or phytotoxicity of 70% or more and less than 90%)	5 (herbicidal effect of not less than 90%, or phytotoxicity of 90% or more)	3 (herbicidal effect of not less than 50% and less than 70%, or phytotoxicity of 50% or more and less than 70%)	3 (herbicidal effect of not less than 50% and less than 70%, or phytotoxicity of 50% or more and less than 70%)		0 (herbicidal effect of not less than 0% and less than 10%, or phytotoxicity of 0% or more and less than 10%)	0 (herbicidal effect of not less than 0% and less than 10%, or phytotoxicity of 0% or more and less than 10%)	0 (herbicidal effect of not less than 0% and less than 10%, or phytotoxicity of 0% or more and less than 10%)	0 (herbicidal effect of not less than 0% and less than 10%, or phytotoxicity of 0% or more and less than 10%)	5 (herbicidal effect of not less than 90%, or phytotoxicity of 90% or more)	5 (herbicidal effect of not less than 90%, or phytotoxicity of 90% or more)	3 (herbicidal effect of not less than 50% and less than 70%, or phytotoxicity of 50% or more and less than 70%)	3 (herbicidal effect of not less than 50% and less than 70%, or phytotoxicity of 50% or more and less than 70%)
CNC(=O)C(Cn1cc(C)c(-c2ccccc2)n1)=NOCc1ccccc1 [Compound 106]					4 (herbicidal effect of not less than 70% and less than 90%, or phytotoxicity of 70% or more and less than 90%)	4 (herbicidal effect of not less than 70% and less than 90%, or phytotoxicity of 70% or more and less than 90%)	4 (herbicidal effect of not less than 70% and less than 90%, or phytotoxicity of 70% or more and less than 90%)	3 (herbicidal effect of not less than 50% and less than 70%, or phytotoxicity of 50% or more and less than 70%)		0 (herbicidal effect of not less than 0% and less than 10%, or phytotoxicity of 0% or more and less than 10%)	0 (herbicidal effect of not less than 0% and less than 10%, or phytotoxicity of 0% or more and less than 10%)	0 (herbicidal effect of not less than 0% and less than 10%, or phytotoxicity of 0% or more and less than 10%)	0 (herbicidal effect of not less than 0% and less than 10%, or phytotoxicity of 0% or more and less than 10%)	3 (herbicidal effect of not less than 50% and less than 70%, or phytotoxicity of 50% or more and less than 70%)	3 (herbicidal effect of not less than 50% and less than 70%, or phytotoxicity of 50% or more and less than 70%)	3 (herbicidal effect of not less than 50% and less than 70%, or phytotoxicity of 50% or more and less than 70%)	3 (herbicidal effect of not less than 50% and less than 70%, or phytotoxicity of 50% or more and less than 70%)
CON=C(Cn1cc(C)c(-c2ccccc2)n1)C(=O)NN(C)C [Compound 124]					4 (herbicidal effect of not less than 70% and less than 90%, or phytotoxicity of 70% or more and less than 90%)	5 (herbicidal effect of not less than 90%, or phytotoxicity of 90% or more)	3 (herbicidal effect of not less than 50% and less than 70%, or phytotoxicity of 50% or more and less than 70%)	3 (herbicidal effect of not less than 50% and less than 70%, or phytotoxicity of 50% or more and less than 70%)		0 (herbicidal effect of not less than 0% and less than 10%, or phytotoxicity of 0% or more and less than 10%)	0 (herbicidal effect of not less than 0% and less than 10%, or phytotoxicity of 0% or more and less than 10%)	0 (herbicidal effect of not less than 0% and less than 10%, or phytotoxicity of 0% or more and less than 10%)	0 (herbicidal effect of not less than 0% and less than 10%, or phytotoxicity of 0% or more and less than 10%)	4 (herbicidal effect of not less than 70% and less than 90%, or phytotoxicity of 70% or more and less than 90%)	4 (herbicidal effect of not less than 70% and less than 90%, or phytotoxicity of 70% or more and less than 90%)	3 (herbicidal effect of not less than 50% and less than 70%, or phytotoxicity of 50% or more and less than 70%)	3 (herbicidal effect of not less than 50% and less than 70%, or phytotoxicity of 50% or more and less than 70%)
